# Measured values as given in US20240336574A1 (LATIGO BIOTHERAPEUTICS, INC., priority 2021, published 2024).
# Read-outs that look alike come from different tables or passages of the source.
# Assays:
# Type in all cases: cell-based
# [1] = biological target: T1, human NaV1.8 (Homo sapiens, UniProt Q9Y5Y9); test: Human NaV1.8 cell line SyncroPatch384PE automated patch clamp assay; design: expressed in transfected cells; host or cells: HEK cells, stably transfected; conditions: resting state block (P1 measurement), recombinant human NaV1.8 cells
# Protocol: Compound Profiling on NaV1.8—Human NaV1.8 Cell Line—SyncroPatch384PE Assay
# Compounds were tested on recombinant human NaV1.8 stably transfected HELK cells using the SyncroPatch384PE system, an automated patch clamp device. Cells were cultured at 37° C./5% CO2 in DMEM medium supplemented with GlutaMAX I, NEAA 1%, FBS 10% and seeded in T175 flasks. Cells were cultured at 30° C. one day prior to recording sodium currents. On the day of the recordings, cells were detached with 0.05% Trypsin-EDTA, resuspended in serum free DMEM medium and placed into the SyncroPatch384PE 6° C. pre-cooled cell hotel and shaken at 200 rpm. Intracellular solution (IC) contained, in mM: 10, CsCl; 110, CsF; 20, EGTA; 10, HEPES. Extracellular solution (EC) contained, in mM: 140, NaCl; 4, KCl; 5, Glucose; 10, HEPES; 2, CaCl2; 1, MgCl2. Washing solution contained, in mM: 40, NMDG; 100, NaCl; 4, KCl; 10, Glucose; 10, HEPES; 5, CaCl2; 1, MgCl2.
# Compounds were tested in quadruplicates in 0.1% DMSO and 0.030% Pluronic Acid. Compounds were diluted 1:3.33 in EC solution to create a 10-point concentration response curve, spanning a final concentration range from 10-0.0002 μM in the assay plate. Compounds with low nM potency were retested using a lower concentration range (1-0.00002 μM). Each plate contained tetracaine and another tool compound as positive controls. Up to 7 compounds were tested on one plate. 150 μM tetracaine and 0.1% DMSO were used as high and low controls, respectively.
# Whole cell patch clamp recordings were conducted according to Nanion's standard procedure for SyncroPatch384PE®. Cells were held at a holding potential of −120 mV. A depolarization step to 10 mV for 30 ms was applied (P1 measurement), followed by a hyperpolarization step to −100 mV for 100 ms. An inactivation step at −40 mV for 10 sec was applied before stepping to −100 mV for 20 ms, followed by a step to 10 mV for 30 ms (P2 measurement) and then back to −100 mV for 30 ms. Sweep interval was 15 sec with a sampling rate of 10 kHz. Following establishment of the whole-cell configuration in EC, two washing steps with reference buffer were performed to stabilize the baseline. Compounds were then applied by the SynchroPatch into each well and the current was recorded for five minutes in EC, followed by application of tetracaine to achieve full block at the end of the experiment. The potency of the compounds was assessed on two read-outs, resting state block (P1 measurement) or inactivated state block (P2 measurement) to obtain IC50 values. Values were normalized to high (tetracaine) and low (DMSO) controls.
# [2] = biological target: T2, recombinant human NaV1.8 stably transfected HEK cells (Homo sapiens, UniProt Q9Y5Y9); test: Compound profiling on NaV1.8, human NaV1.8 cell line, SyncroPatch384PE automated patch clamp assay (Example 115, third set of compounds, Table 27); conditions: human NaV1.8 HEK cells, Table 27 (third set of compounds)
# T2 construct: expressed in transfected cells; host or cells: HEK cells, stably transfected
# In short: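 HEK cells, cultured at 30 °C the day before, recorded by automated whole-cell patch clamp (CsF intracellular, 140 mM Na+ external), holding −120 mV. 10-point curves at 10–0.0002 µM (or 1–0.00002 µM), 5 min exposure; IC50 for resting (P1) and inactivated-state block (P2, after 10 s at −40 mV), normalized to 150 µM tetracaine and 0.1% DMSO.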
# [3] = biological target: T1, human NaV1.8; test: Activity of representative NaV1.8 inhibitors, determined using one or more of the methods of Example 122 (method not specified); design: expressed in transfected cells; host or cells: HEK293 / HEK-293, stably expressing; conditions: inhibition of the Nav1.8 channel; one or more of fluorescence, PatchXpress or IonFlux HT methods
# Protocol: The ability of pyridazine carboxamide derivatives exemplified above to inhibit the NaV1.8 channel was determined using one or more of the methods described below.
# A HEK293 cell line stably expressing the human NaV1.8 (hNaV1.8) ion channel with β1/β2 subunits was constructed. The cell line is suitable for IC50 determination in fluorescence and electrophysiological based assays. It is also suitable to form mechanism of action pharmacology studies in electrophysiological assays. HEK293 NaV1.8 cells are grown as adherent monolayers in DMEM/high glucose media, 10% fetal bovine serum, Na pyruvate (2 mM), Hepes (10 mM) with selection agents G418 (400 mg/L) and puromycin (0.5 mg/L) at 37 degrees C., 10% CO2.
# Activity of Representative NaV1.8 Inhibitors
# The ability of representative pyridazine carboxamide derivatives exemplified above to inhibit the Nav1.8 channel was determined using one or more of the methods described immediately hereinabove.
# [4] = inactivated state block (P2 measurement), read-out: P2 IC50
# [5] = resting state block (P1 measurement), read-out: P1 IC50
# T1 sequence (Q9Y5Y9 whole entry): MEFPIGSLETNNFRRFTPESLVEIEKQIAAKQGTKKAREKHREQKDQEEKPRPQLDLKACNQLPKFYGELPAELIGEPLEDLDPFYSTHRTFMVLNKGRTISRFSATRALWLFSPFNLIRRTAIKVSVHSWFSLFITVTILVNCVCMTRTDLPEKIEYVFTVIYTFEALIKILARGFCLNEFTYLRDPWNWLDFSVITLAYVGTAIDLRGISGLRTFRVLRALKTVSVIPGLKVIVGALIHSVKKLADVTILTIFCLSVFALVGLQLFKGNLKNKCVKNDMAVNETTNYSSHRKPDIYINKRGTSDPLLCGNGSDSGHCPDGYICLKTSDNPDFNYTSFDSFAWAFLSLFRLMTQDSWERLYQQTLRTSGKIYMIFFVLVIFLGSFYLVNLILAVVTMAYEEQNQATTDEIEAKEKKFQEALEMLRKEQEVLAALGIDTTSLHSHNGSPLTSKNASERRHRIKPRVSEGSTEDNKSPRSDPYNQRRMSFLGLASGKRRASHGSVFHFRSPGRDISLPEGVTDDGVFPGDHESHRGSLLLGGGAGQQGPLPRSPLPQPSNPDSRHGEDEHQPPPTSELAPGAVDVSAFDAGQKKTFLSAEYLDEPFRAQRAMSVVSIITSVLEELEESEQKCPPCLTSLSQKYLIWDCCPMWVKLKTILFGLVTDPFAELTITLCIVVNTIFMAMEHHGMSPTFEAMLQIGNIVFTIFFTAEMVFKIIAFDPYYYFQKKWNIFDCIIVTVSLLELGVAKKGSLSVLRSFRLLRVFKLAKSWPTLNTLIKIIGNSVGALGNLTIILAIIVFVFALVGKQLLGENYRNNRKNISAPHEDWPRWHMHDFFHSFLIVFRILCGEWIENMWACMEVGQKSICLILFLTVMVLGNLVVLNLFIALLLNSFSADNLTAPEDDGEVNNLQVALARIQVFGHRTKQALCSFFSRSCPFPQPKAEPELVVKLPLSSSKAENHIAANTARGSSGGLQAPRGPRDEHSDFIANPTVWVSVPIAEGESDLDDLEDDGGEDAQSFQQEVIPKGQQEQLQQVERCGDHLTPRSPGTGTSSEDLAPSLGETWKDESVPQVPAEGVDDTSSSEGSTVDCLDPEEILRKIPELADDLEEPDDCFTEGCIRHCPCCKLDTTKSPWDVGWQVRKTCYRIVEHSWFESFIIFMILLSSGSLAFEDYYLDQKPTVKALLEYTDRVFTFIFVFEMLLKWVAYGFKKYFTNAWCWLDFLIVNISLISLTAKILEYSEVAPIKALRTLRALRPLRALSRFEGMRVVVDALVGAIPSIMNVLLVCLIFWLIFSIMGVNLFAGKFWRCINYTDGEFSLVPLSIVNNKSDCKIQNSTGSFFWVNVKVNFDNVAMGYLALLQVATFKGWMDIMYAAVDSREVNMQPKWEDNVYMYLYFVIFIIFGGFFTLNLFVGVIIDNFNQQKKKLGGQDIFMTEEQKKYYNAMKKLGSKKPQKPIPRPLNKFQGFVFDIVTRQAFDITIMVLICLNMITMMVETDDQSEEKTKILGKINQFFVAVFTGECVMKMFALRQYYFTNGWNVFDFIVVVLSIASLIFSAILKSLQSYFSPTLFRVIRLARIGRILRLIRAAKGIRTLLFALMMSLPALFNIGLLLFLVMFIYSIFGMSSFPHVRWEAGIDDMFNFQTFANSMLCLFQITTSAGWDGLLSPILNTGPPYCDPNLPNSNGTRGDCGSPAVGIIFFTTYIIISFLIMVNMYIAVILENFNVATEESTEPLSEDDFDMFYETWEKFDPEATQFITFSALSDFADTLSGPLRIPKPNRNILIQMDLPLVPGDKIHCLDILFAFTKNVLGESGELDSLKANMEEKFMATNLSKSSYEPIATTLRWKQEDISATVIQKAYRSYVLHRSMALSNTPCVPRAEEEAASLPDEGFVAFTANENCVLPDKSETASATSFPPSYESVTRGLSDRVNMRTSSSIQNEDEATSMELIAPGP
# T2 sequence (Q9Y5Y9 whole entry): as above
IC50 [1] [µM],"IC50 [2, 4] [µM]","IC50 [2, 5] [µM]",IC50 [3] [µM],Structure (SMILES)
> 5,–,–,–,CC(=O)N1CCC[C@@H](NC(=O)c2cc(C(F)(F)F)nnc2Oc2ccc(F)cc2C)C1 [Compound 4]
> 5,–,–,–,"COc1cc(F)ccc1Oc1nnc(C(F)(F)F)cc1C(=O)N[C@H]1CCCN(C(=O)OC(C)(C)C)C1 [Compound 5, tert-Butyl (S)-3-(3-(4-fluoro-2-methoxyphenoxy)-6-(trifluoromethyl)pyridazine-4-carboxamido)piperidine-1-carboxylate]"
> 5,–,–,–,"COc1cc(F)ccc1Oc1nnc(C(F)(F)F)cc1C(=O)N[C@H]1CCCNC1 [Compound 6, (S)-3-(4-Fluoro-2-methoxyphenoxy)-N-(piperidin-3-yl)-6-(trifluoromethyl)pyridazine-4-carboxamide]"
> 5,0.501 to 1,1 to 5,–,"COc1cc(F)ccc1Oc1nnc(C(F)(F)F)cc1C(=O)N[C@H]1CCCN(S(C)(=O)=O)C1 [Compound 7, (S)-3-(4-Fluoro-2-methoxyphenoxy)-N-(1-(methylsulfonyl)piperidin-3-yl)-6-(trifluoromethyl)pyridazine-4-carboxamide]"
> 5,–,–,–,COc1cc(F)ccc1Oc1nnc(C(F)(F)F)cc1C(=O)N[C@H]1CCCN(C(C)=O)C1 [Compound 8]
> 5,–,–,–,COc1cc(F)ccc1Oc1nnc(C(F)(F)F)cc1C(=O)NC1CCCNC1=O (centres unmarked) [Compound 9]
> 5,–,–,–,Cc1cc(F)ccc1Oc1nnc(C(F)(F)F)cc1C(=O)NC1CCCNC1=O (centres unmarked) [Compound 10]
> 5,–,–,–,Cc1cc(F)ccc1Oc1nnc(C(F)(F)F)cc1C(=O)NC1CCC(=O)NC1 (centres unmarked) [Compound 11]
> 5,–,–,–,COc1cc(F)ccc1Oc1nnc(C(F)(F)F)cc1C(=O)NC1CCC(=O)NC1 (centres unmarked) [Compound 12]
–,0.201 to 0.5,0.501 to 1,–,"COc1ccc(F)cc1Oc1nnc(C(F)(F)F)cc1C(=O)Nc1cccc(S(N)(=O)=O)c1 [Compound 122, 3-(5-Fluoro-2-methoxyphenoxy)-N-(3-sulfamoylphenyl)-6-(trifluoromethyl)pyridazine-4-carboxamide]"
–,≤ 0.2,≤ 0.2,–,"Cc1cc(C#N)ccc1Oc1nnc(C(F)(F)F)cc1C(=O)Nc1cccc(S(N)(=O)=O)c1 [Compound 123, 3-(4-Cyano-2-methylphenoxy)-N-(3-sulfamoylphenyl)-6-(trifluoromethyl)pyridazine-4-carboxamide]"
–,0.201 to 0.5,≤ 0.2,–,"COc1cc(F)ccc1Oc1nnc(C(F)(F)F)cc1C(=O)Nc1ccc(C(N)=O)nc1 [Compound 125, N-(6-Carbamoylpyridin-3-yl)-3-(4-fluoro-2-methoxyphenoxy)-6-(trifluoromethyl)pyridazine-4-carboxamide]"
–,≤ 0.2,≤ 0.2,–,"COc1cc(F)ccc1Oc1nnc(C(F)(F)F)cc1C(=O)Nc1ccnc(C(N)=O)c1 [Compound 126, N-(2-Carbamoylpyridin-4-yl)-3-(4-fluoro-2-methoxyphenoxy)-6-(trifluoromethyl)pyridazine-4-carboxamide]"
–,0.501 to 1,0.501 to 1,–,"CNC(=O)c1ccc(NC(=O)c2cc(C(F)(F)F)nnc2Oc2ccc(F)cc2OC)cc1 [Compound 127, 3-(4-Fluoro-2-methoxyphenoxy)-N-(4-(methylcarbamoyl)phenyl)-6-(trifluoromethyl)pyridazine-4-carboxamide]"
–,> 5,> 5,–,"COc1cc(F)ccc1Oc1nnc(C(F)(F)F)cc1C(=O)Nc1cncc(C(N)=O)n1 [Compound 128, N-(6-Carbamoylpyrazin-2-yl)-3-(4-fluoro-2-methoxyphenoxy)-6-(trifluoromethyl)pyridazine-4-carboxamide]"
–,0.201 to 0.5,0.201 to 0.5,–,"CNC(=O)c1cccc(NC(=O)c2cc(C(F)(F)F)nnc2Oc2ccc(F)cc2OC)c1 [Compound 129, 3-(4-Fluoro-2-methoxyphenoxy)-N-(3-(methylcarbamoyl)phenyl)-6-(trifluoromethyl)pyridazine-4-carboxamide]"
–,1 to 5,> 5,–,"CS(=O)(=O)c1cccc(NC(=O)c2cc(C(F)(F)F)nnc2Oc2ccc(F)cc2O)c1 [Compound 130, 3-(4-Fluoro-2-hydroxyphenoxy)-N-(3-(methylsulfonyl)phenyl)-6-(trifluoromethyl)pyridazine-4-carboxamide]"
–,0.501 to 1,0.201 to 0.5,–,"NS(=O)(=O)c1cccc(NC(=O)c2cc(C(F)(F)F)nnc2Oc2ccc(F)cc2O)c1 [Compound 131, 3-(4-Fluoro-2-hydroxyphenoxy)-N-(3-sulfamoylphenyl)-6-(trifluoromethyl)pyridazine-4-carboxamide]"
–,≤ 0.2,0.201 to 0.5,–,"Cc1cc(-c2cnoc2)ccc1Oc1nnc(C(F)(F)F)cc1C(=O)Nc1cccc(S(C)(=O)=O)c1 [Compound 132, N-(3-Methanesulfonylphenyl)-3-[2-methyl-4-(1,2-oxazol-4-yl)phenoxy]-6-(trifluoromethyl)pyridazine-4-carboxamide]"
–,> 5,> 5,–,"Cc1cc(-c2cn[nH]c2)ccc1Oc1nnc(C(F)(F)F)cc1C(=O)Nc1cccc(S(C)(=O)=O)c1 [Compound 133, 3-[2-Methyl-4-(1H-pyrazol-4-yl)phenoxy]-N-(3-methylsulfonylphenyl)-6-(trifluoromethyl)pyridazine-4-carboxamide]"
–,> 5,> 5,–,"Cc1cc(F)ccc1Oc1nnc(C(F)(F)F)cc1C(=O)Nc1cccc2nncn12 [Compound 134, 3-(4-Fluoro-2-methyl-phenoxy)-N-([1,2,4]triazolo[4,3-a]pyridin-5-yl)-6-(trifluoromethyl)pyridazine-4-carboxamide]"
–,0.501 to 1,≤ 0.2,–,"Cc1cc(F)ccc1Oc1nnc(C(F)(F)F)cc1C(=O)Nc1ccn2nnnc2c1 [Compound 135, 3-(4-Fluoro-2-methylphenoxy)-N-(tetrazolo[1,5-a]pyridin-7-yl)-6-(trifluoromethyl)pyridazine-4-carboxamide]"
–,≤ 0.2,≤ 0.2,–,"COc1c(Oc2ncc(C(F)(F)F)nc2C(=O)Nc2cccc(S(C)(=N)=O)c2)ccc(F)c1F (centres unmarked) [Compound 136, 3-(3,4-difluoro-2-methoxy-phenoxy)-N-[3-(methylsulfonimidoyl)phenyl]-6-(trifluoromethyl)pyrazine-2-carboxamide]"
–,–,–,< 0.5,"COc1cc(F)ccc1Oc1nnc(C(F)(F)F)cc1C(=O)Nc1cccc(S(C)(=N)=O)c1 (centres unmarked) [Example 1, 3-(4-fluoro-2-methoxy-phenoxy)-N-[3-(methylsulfonimidoyl)phenyl]-6-(trifluoromethyl)pyridazine-4-carboxamide]"
–,–,–,< 0.5,"Cc1cc(F)ccc1Oc1nnc(C(F)(F)F)cc1C(=O)Nc1cccc(S(C)(=N)=O)c1 (centres unmarked) [Example 2, 3-(4-fluoro-2-methyl-phenoxy)-N-[3-(methylsulfonimidoyl)phenyl]-6-(trifluoromethyl)pyridazine-4-carboxamide]"
